Laboratory results as given in US20050176691A1, “Combination therapy for the treatment of estrogen-sensitive disease” (priority 2000, published 2005).
Read-outs that look alike come from different tables or passages of the source. Blank lines part the entries; values can stand above or below the compound they belong to.

How the values were obtained:
[1] = Other effects on ADME or PK (patient factors); conditions: in vivo
[2] = tested on: estrogen receptor / enzyme (primary endocrine mechanism); assay: Endocrine effect
[3] = tested on: primary metabolizing enzyme(s); assay: Metabolism characteristics; assay type: in vitro ADME
[4] = Absorption characteristics; conditions: in vivo
Pharmacokinetic profile = assay type: in vivo
plasma protein = assay: Distribution: plasma protein binding; assay type: in vitro ADME
[5] = Excretion characteristics; conditions: in vivo
[6] = during combination therapy with tamoxifen; persisted during months; cited from earlier work

effect of race of patient on ADME or PK [1]: unexpected
effect of sex of patient on ADME or PK [1]: no known effect
direct inhibition of primary mechanism by combination drug [2]: no
feedback stimulation on combination drug's primary mechanism [2]: yes
induction of primary metabolizing enzyme [3]: no
plasma levels affected by known inducers of cytochrome p-450 enzyme system [3]: yes
primary enzyme(s) of metabolism [3]: CYP3A4
primary metabolite active [3]: yes
significant pre-systemic metabolism [3]: no
Absorption: influenced by food [4]: no
Absorption: route [4]: oral
overall time to steady state (Pharmacokinetic profile; in vivo): 4-6 weeks
half-life (Pharmacokinetic profile; in vivo, read-out: distribution t1/2 (time) (converted)): 4 h
half-life (Pharmacokinetic profile; in vivo, read-out: elimination t1/2 (time) (converted)): 120 h
clearance (Pharmacokinetic profile; in vivo, read-out: total clearance (volume/unit time) (converted)): 83.3 mL/min
Tmax (Pharmacokinetic profile; plasma, oral): 3 h
principal plasma binding protein(s) (plasma protein): albumin
fraction unbound (plasma protein; plasma): < 0.005
enterohepatic circulation [5]: yes
primary route of elimination [5]: fecal
enterohepatic circulation ([5]; listed as toremifene): subject to enterohepatic circulation
SMILES: CN(C)CCOc1ccc(/C(=C(/CCCl)c2ccccc2)c2ccccc2)cc1 [Toremifene, (Z)-2-[4-(4-chloro-1,2-diphenyl-1-butenyl)phenoxy]-N,N-dimethylethanamine]

SMILES: N#Cc1ccc(C(c2ccc(C#N)cc2)n2cncn2)cc1 [letrozole, 4,4′-(1H-1,2,4-triazol-1-ylmethylene)bis-benzonitrile]
mean reduction of plasma levels of letrozole vs single agent letrozole [6]: 37%
